# In patent US20260248767A1, “METHODS FOR INDUCING FERROPTOSIS IN CANCER” (Board of Regents, The University of Texas System, priority 2023, published 2026):
# Entries after “also recorded” stand apart in the source; their conditions may differ.
# Tests used:
# HT-1080 cells [1] = assay: Cell viability assay (CCK-8); format: cell-based, human
# Experimental: Cell viability was measured using a Cell Counting Kit-8 (CCK-8, Dojindo) as previously described (Koppula, P., et al. J Biol Chem 292, 14240-14249, doi: 10.1074/jbc.M117.798405 (2017); Liu, X. et al. Nat Cell Biol 18, 431-442, doi: 10.1038/ncb3328 (2016)). In brief, cells were seeded onto 96-well plates at a density of 1×10^4 per well. The next day, cells were treated with indicated compound for 16-20 h. Subsequently, cells were changed to new 100 μl medium containing 10 μl CCK-8 reagent for 1 h at 37° C., 5% CO2 in incubator. The absorbance at 450 nm was determined using a FLUOstar Omega microplate reader (BMG Labtech).
# HT-1080 cells [2] = assay: Cell death assay (PI flow cytometry), HT-1080 cells incl. knockout lines
# oxidative PPP = assay: Oxidative PPP flux calculation (1,2-[13C2] glucose); format: cell-based; conditions: sulfite vs vehicle treated cells
# Experimental: Cells were seeded in six-well plates and incubated overnight, then given 2 ml of fresh medium containing 25 mM 1,2-[13C2] glucose. Aliquots of this medium were frozen and stored for analysis to determine the initial glucose concentration, and cells in replicate plates were trypsinized and counted to determine initial cell numbers. After 24 h, the spent medium was extracted as above and frozen until analysis, and the cells were trypsinized and counted to determine the final cell numbers.
# For lactate isotopomer analysis the samples were analyzed directly. The relative quantities of M0, M1, M2 and M3 lactate were corrected for natural carbon-13 abundance using the IsoCorrectoR software package (Heinrich, P. et al. Sci Rep 8, 17910, doi: 10.1038/s41598-018-36293-4 (2018)). and the oxidative PPP-shunting ratio was calculated by taking the ratio M1/(M1+M2) (Badur, M. G. et al. Cell Rep 25, 1680, doi: 10.1016/j.celrep.2018.10.099 (2018)); since there is no difference in growth rates between the vehicle and sulfite treated cell lines, it is assumed that the biosynthetic demand for ribose-5-phosphate or any other PPP intermediate is the same in each case, so any increase in this ratio reflects an increase in NADPH production by the oxidative PPP.
# SHMT2 protein = molecular target: T1, SHMT2 protein (Homo sapiens, UniProt P34897); assay: SHMT2 tetramer formation (immunoblot); format: cell-based; conditions: sulfite treatment
# T1 construct: endogenous in cells
# T1 sequence (P34897 30-504): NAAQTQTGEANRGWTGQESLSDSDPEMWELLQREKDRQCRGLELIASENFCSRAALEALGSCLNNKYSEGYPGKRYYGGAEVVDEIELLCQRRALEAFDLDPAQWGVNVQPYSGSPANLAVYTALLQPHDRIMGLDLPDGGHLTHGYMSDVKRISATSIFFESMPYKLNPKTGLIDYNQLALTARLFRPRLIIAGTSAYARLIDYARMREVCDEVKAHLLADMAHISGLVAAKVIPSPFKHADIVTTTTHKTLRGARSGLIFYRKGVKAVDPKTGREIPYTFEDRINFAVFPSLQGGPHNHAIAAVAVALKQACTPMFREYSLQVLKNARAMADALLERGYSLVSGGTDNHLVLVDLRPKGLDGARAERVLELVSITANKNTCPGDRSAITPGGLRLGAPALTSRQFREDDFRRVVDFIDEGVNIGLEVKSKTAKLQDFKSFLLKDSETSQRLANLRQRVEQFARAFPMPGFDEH
# Excerpt: Exogenously expressed SHMT2 was also able to form tetramer (FIG. 8B).
# To generate cell lines with stable overexpression of C-terminal-tagged SHMT2, the SHMT2 cDNA was cloned into the lentivirus expression vector pLEX_307 SFB. HEK293T cells were transfected with either pLEX_307 SFB-empty vector, or -SHMT2, together with the lentiviral packaging plasmids psPAX2 and pMD2.G using Lipofectamine 2000 reagent (Life Technologies, #11668030) according to the manufacturer's instructions and as described previously (Lei, G. et al. Oncogene 40, 3533-3547, doi: 10.1038/s41388-021-01790-w (2021); Lei, G. et al. Cell Res 30, 146-162, doi: 10.1038/s41422-019-0263-3 (2020)). Forty-eight hours later, lentivirus was collected and filtered, and the target cell lines were infected with lentivirus. Twenty-four hours after infection, antibiotic was added to the medium to obtain stable cell lines. Protein expression levels were determined by immunoblotting. To generate knockdown cell lines, lentiviral transduction with IDH1/ME1/MTHFD21 shRNA vectors was conducted as described previously (Lin, A. et al. Cancer Res 74, 1682-1693, doi: 10.1158/0008-5472.CAN-13-1729 (2014)). Forty-eight hours later, upon puromycin antibiotic selection, protein expression levels were determined by immunoblotting.
# Briefly, cells were lysed in NP-40 lysis buffer (50 mM Tris [pH 7.4], 250 mM NaCl, 5 mM EDTA, 50 mM NaF, 1 mM Na3VO4, 1% Nonidet P40) containing complete mini protease inhibitors (Roche). The protein concentration of lysates was quantified using BCA Protein Assay Kit from Life Technologies (#23227). 20 μg of total protein was loaded into SDS-PAGE gel and transferred to a PVDF membrane (Bio-Rad) using standard techniques. […]
# HT-1080 cells [3] = assay: Lipid peroxidation measurement (C11-BODIPY 581/591, flow cytometry); format: cell-based, human; conditions: combined with RSL3, compared to RSL3 alone
# Experimental: Cells were seeded on 12-well plates and incubated overnight. After treating with compounds for indicated time, cells were incubated in media containing 5 μM C11-BODIPY 581/591 (Invitrogen) for 30 min at 37° C. Then cells were trypsinized and collected. […] All experiments were performed in triplicates.
structure (smiles),measurement,setting,value
"O=S([O-])[O-].[Na+].[Na+] [sulfite, sodium sulfite]",cell viability when combined with different concentrations of RSL3,"HT-1080 cells [1]; combined with RSL3, range of concentrations",reduces cell viability
same,sensitization effect on cell viability in SHMT2 knock out cells,"HT-1080 cells [1]; sulfite plus multiple concentrations of RSL3, SHMT2 knock out vs wild type",much weaker than in wild type cells
same,cell death as observed visually,"HT-1080 cells [2]; 0.5 mM, cancer cells, presence or absence of RSL3",resulted in cell death
same,sensitization of knock out cells to ferroptosis,"HT-1080 cells [2]; GPX4, FSP1, COQ2 and DHODH knock out cell lines",can still sensitize
same,cell death in combination with RSL3 in SHMT2 knock out cells,"HT-1080 cells [2]; RSL3+Sulfite vs RSL3 alone, SHMT2 knock out cells (FIG. 5J)",slight increase in cell death
same,cell death in combination with RSL3 in SUOX knockout cells,"HT-1080 cells [2]; SUOX knockout HT-1080 cells, vs RSL3 alone",significantly more cell death
same,sensitization to RSL3 induced ferroptosis under co-treatment with ferroptosis regulator inhibitors,"HT-1080 cells [2]; co-treatment with 4CBA, iFSP1 or brequinar (BQR)",can still sensitize
same,cell death in combination with RSL3,"HT-1080 cells [2]; combined with RSL3, compared to RSL3 alone",significant increased cell death
same,cell death in combination with FIN56,HT-1080 cells [2]; combined with ferroptosis inducer FIN56,similarly enhanced
same,cell death in combination with JKE-1674,HT-1080 cells [2]; combined with ferroptosis inducer JKE-1674 (JKE),similarly enhanced
same,cell death in combination with ML-162,HT-1080 cells [2]; combined with ferroptosis inducer ML-162,similarly enhanced
same,cell death in combination with ML-210,HT-1080 cells [2]; combined with ferroptosis inducer ML-210,similarly enhanced
same,oxPPP shunting,oxidative PPP,increase
same,tetramer formation of endogenous SHMT2 protein,SHMT2 protein,disrupt the tetramer formation; also recorded: inhibits the tetramer formation
same,tetramer formation of exogenous expressed SHMT2,SHMT2 protein,inhibit the tetramer formation
same,tetramer formation of exogenous expressed SHMT2,SHMT2 protein; listed as Sulfite,inhibited the tetramer formation
same,relative lipid peroxidation level in combination with RSL3,HT-1080 cells [3],significantly increased
